Measurements from patent US20140037719A1, “STABILIZED PHARMACEUTICAL FORMULATIONS OF A POTENT HCV INHIBITOR” (Robert Majeska, priority 2012, published 2014).

Assay: Ames test / genotoxicity of degradation product
Format: cell-based

Structure (SMILES): C=C[C@@H]1C[C@]1(N)C(=O)O [Compound X]
- Ames result: Ames positive
- genotoxicity: genotoxic
